Experimental data as given in article PMC4540177 (Bioorganic & medicinal chemistry letters, 2013).

Experiments:
Rat pharmacokinetics = type: in vivo, Sprague-Dawley rats
Mouse brain penetration = type: in vivo, C57Bl6 mice

## Cc1ncn(-c2ccc(Nc3cc(-c4nocc4-c4cn[nH]c4C)ccn3)cc2)n1 [Compound 28]
Rat pharmacokinetics; rat pk
  in vivo properties (in words): poor in vivo properties

## Cc1ncn(-c2ccc(Nc3cc(-c4nocc4-c4cnn(C)c4)ccn3)cc2)n1 [Compound 27]
Rat pharmacokinetics; rat
  half live (in words): short half live
  oral exposure (in words): good oral exposure
Mouse brain penetration
  brain penetration (in words): poor brain penetration
